# Test results reported in ChEMBL document CHEMBL5620367, “Discovery of new tetrahydroisoquinolines as potent and selective LSD1 inhibitors for the treatment of MLL-rearranged leukemia” (Eur J Med Chem, 2023).
# The source made the active and inactive calls. The rule behind the calls is not given here.
# Legend:
# MOLM-13 [1] = assay: Induction of apoptosis in human MOLM-13 cells assessed as viable cells at 100 uM incubated for 3 days by Annexin V staining based flow cytometry (reference value: 90.54 %); assay type: functional; details: MOLM-13, 72 h, time 3 day, read-out: Activity
# [2] = target: T1, MAO-B (amine oxidase [flavin-containing] B) (Homo sapiens, UniProt P27338); assay: Inhibition of N-terminal FLAG-tagged recombinant human MAO-B expressed in baculovirus infected Sf9 cells upto 10 uM preincubated for 15 mins followed by addition of luciferin derivative substrate measured after 1 hr by Luciferase Glo assay relative to control; details: probe luciferin derivative substrate, time 75 min
# T1 sequence (P27338 whole entry): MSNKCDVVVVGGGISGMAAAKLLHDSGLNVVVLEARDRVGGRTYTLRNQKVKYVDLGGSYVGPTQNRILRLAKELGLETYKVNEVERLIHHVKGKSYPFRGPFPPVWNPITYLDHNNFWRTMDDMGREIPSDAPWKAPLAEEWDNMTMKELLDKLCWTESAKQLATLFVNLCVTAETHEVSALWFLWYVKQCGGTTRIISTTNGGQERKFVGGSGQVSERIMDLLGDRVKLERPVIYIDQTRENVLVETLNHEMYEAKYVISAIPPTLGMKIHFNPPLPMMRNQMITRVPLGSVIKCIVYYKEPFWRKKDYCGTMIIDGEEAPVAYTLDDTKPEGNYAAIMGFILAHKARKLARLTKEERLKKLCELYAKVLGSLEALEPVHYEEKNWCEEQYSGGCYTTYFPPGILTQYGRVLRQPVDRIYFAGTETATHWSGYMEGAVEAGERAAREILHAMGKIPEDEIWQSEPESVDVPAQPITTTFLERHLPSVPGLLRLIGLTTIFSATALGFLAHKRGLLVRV
# MOLM-13 [3] = assay: Induction of cell differentiation in human MOLM-13 cells assessed as increase in CD11b level upto 400 uM incubated for 7 days […]; assay type: functional, cell-based; details: time 7.0 day
# MOLM-13 [4] = assay: Induction of apoptosis in human MOLM-13 cells assessed as increase in p53 level upto 100 uM incubated for 3 days by Western blot analysis; assay type: functional, cell-based; details: time 3.0 day
# MV4-11 [5] = assay: Induction of apoptosis in human MV4-11 cells assessed as early apoptotic cells at 30 uM incubated for 3 days by Annexin V staining based flow cytometry (reference value: […] %); assay type: functional; details: time 3 day
# MV4-11 [6] = assay: Induction of apoptosis in human MV4-11 cells assessed as late apoptotic cells at 100 uM incubated for 3 days by Annexin V staining based flow cytometry (reference value: 7.29 %); assay type: functional; details: time 3 day
# MV4-11 [7] = assay: Induction of cell differentiation in human MV4-11 cells assessed as CD11b level at 10 uM incubated for 3 days by Annexin V staining based flow cytometry (reference value: 8.58 %); assay type: functional; details: time 3 day
# MV4-11 [8] = assay: Induction of apoptosis in human MV4-11 cells assessed as necrotic cells at 100 uM incubated for 3 days by Annexin V staining based flow cytometry (reference value: 2.45 %); assay type: functional; details: time 3 day
# MV4-11 [9] = assay: Induction of apoptosis in human MV4-11 cells assessed as necrotic cells at 30 uM incubated for 3 days by Annexin V staining based flow cytometry (reference value: 2.45 %); assay type: functional; details: time 3 day
# MV4-11 [10] = assay: Anti-invasive activity against human MV4-11 cells xenografted in NOD-SCID mouse assessed as reduction in tumor formation in ovarian tissue at 50 mg/kg, sc measured after 33 days; assay type: functional, organism-based; details: time 33.0 day
# MV4-11 [11] = assay: Induction of apoptosis in human MV4-11 cells assessed as viable cells at 30 uM incubated for 3 days by Annexin V staining based flow cytometry (reference value: 89.63 %); assay type: functional; details: MV4-11, 72 h, time 3 day, read-out: Activity
# MOLM-13 [12] = assay: Induction of apoptosis in human MOLM-13 cells assessed as early apoptotic cells at 30 uM incubated for 3 days by Annexin V staining based flow cytometry (reference value: 4.94 %); assay type: functional; details: time 3 day
# MOLM-13 [13] = assay: Induction of apoptosis in human MOLM-13 cells assessed as viable cells at 10 uM incubated for 3 days by Annexin V staining based flow cytometry (reference value: 90.54 %); assay type: functional; details: MOLM-13, 72 h, time 3 day, read-out: Activity
# [14] = target: T2, MAO-A (amine oxidase [flavin-containing] A) (Homo sapiens, UniProt P21397); assay: Inhibition of N-terminal FLAG-tagged recombinant human MAO-A expressed in baculovirus infected Sf9 cells upto 10 uM preincubated for 15 mins followed by addition of luciferin derivative substrate measured after 1 hr by Luciferase Glo assay relative to control; details: probe luciferin derivative substrate, time 75 min
# T2 sequence (P21397 whole entry): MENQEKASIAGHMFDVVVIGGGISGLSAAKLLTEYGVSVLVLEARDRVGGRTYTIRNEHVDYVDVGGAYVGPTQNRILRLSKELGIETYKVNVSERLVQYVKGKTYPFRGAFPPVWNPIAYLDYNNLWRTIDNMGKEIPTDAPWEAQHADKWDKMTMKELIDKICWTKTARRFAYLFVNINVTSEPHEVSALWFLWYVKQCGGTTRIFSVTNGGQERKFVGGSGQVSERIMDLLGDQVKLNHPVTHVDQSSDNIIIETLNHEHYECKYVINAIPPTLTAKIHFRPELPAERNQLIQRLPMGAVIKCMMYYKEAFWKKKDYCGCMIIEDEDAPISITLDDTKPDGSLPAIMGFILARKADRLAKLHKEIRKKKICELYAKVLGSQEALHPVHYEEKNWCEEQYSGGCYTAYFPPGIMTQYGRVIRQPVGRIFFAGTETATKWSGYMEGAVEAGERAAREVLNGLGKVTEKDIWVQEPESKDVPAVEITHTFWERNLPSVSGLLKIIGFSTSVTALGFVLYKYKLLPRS
# MV4-11 [15] = assay: Antitumor activity against human MV4-11 cells xenografted in NOD-SCID mouse assessed as increase in RBC at 50 to 78.7 mg/kg, sc measured after 33 days; assay type: functional, organism-based; details: dose 50-78.7 mg/kg, time 33.0 day
# [16] = Toxicity in NOD-SCID mouse xenografted with human MV4-11 cells assessed as body weight reduction at 50 to 78.7 mg/kg, sc measured after 33 days; assay type: organism-based; design: scale not given: the % may be the effect or the level left; details: in vivo, 792 h, dose 50-78.7 mg/kg, time 33 day
# MOLM-13 [17] = assay: Cytotoxicity against human MOLM-13 cells incubated for 7 days by CCK8 assay; details: MOLM-13, 168 h
# MV4-11 [18] = assay: Antitumor activity against human MV4-11 cells xenografted in NOD-SCID mouse assessed as decrease in leukemic cells in blood at 78.7 mg/kg, sc measured after 33 days relative to control; assay type: functional; design: scale not given: the % may be the effect or the level left; details: time 33 day
# MV4-11 [19] = assay: Antitumor activity against human MV4-11 cells xenografted in NOD-SCID mouse assessed as decrease in leukemic cells in spleen at 78.7 mg/kg, sc measured after 33 days relative to control; assay type: functional; design: scale not given: the % may be the effect or the level left; details: time 33 day
# MV4-11 [20] = assay: Antitumor activity against human MV4-11 cells xenografted in NOD-SCID mouse assessed as increase in hemoglobin level at 50 to 78.7 mg/kg, sc measured after 33 days; assay type: functional, organism-based; details: dose 50-78.7 mg/kg, time 33.0 day
# MOLM-13 [21] = assay: Anti-cancer activity against human MOLM-13 cells assessed as reduction in Meis1 mRNA level upto 100 uM by qRT-PCR analysis relative to control; assay type: functional; design: scale not given: the % may be the effect or the level left; details: up to 100 µM
# MOLM-13 [22] = assay: Induction of apoptosis in human MOLM-13 cells assessed as late apoptotic cells at 10 uM incubated for 3 days by Annexin V staining based flow cytometry (reference value: 3.29 %); assay type: functional; details: time 3 day
# MV4-11 [23] = assay: Induction of apoptosis in human MV4-11 cells assessed as increase in p53 level upto 100 uM incubated for 3 days by Western blot analysis; assay type: functional, cell-based; details: time 3.0 day
# MOLM-13 [24] = assay: Induction of apoptosis in human MOLM-13 cells assessed as necrotic cells at 30 uM incubated for 3 days by Annexin V staining based flow cytometry (reference value: 1.23 %); assay type: functional; details: time 3 day
# MOLM-13 [25] = assay: Induction of cell differentiation in human MOLM-13 cells assessed as increase in CD14 level upto 100 uM incubated for 3 days by Annexin V staining based flow cytometry; assay type: functional; details: time 3.0 day
# MV4-11 [26] = assay: Induction of apoptosis in human MV4-11 cells assessed as viable cells at 10 uM incubated for 3 days by Annexin V staining based flow cytometry (reference value: 89.63 %); assay type: functional; details: MV4-11, 72 h, time 3 day, read-out: Activity
# [27] = Toxicity in NOD-SCID mouse xenografted with human MV4-11 cells assessed as hunch-back posture at 50 to 78.7 mg/kg, sc measured after 33 days; assay type: organism-based; details: in vivo, 792 h, dose 50-78.7 mg/kg, time 33 day
# [28] = Toxicity in NOD-SCID mouse xenografted with human MV4-11 cells assessed as animal survival at 50 to 78.7 mg/kg, sc measured after 33 days; assay type: organism-based; details: in vivo, 792 h, dose 50-78.7 mg/kg, time 33 day
smiles,measurement,setting,value
O=C(O)C(F)(F)F.O=[N+]([O-])c1ccc(C2NCCc3cc(O)c(O)cc32)cc1 (stereo not drawn),viability at 100 µM,MOLM-13 [1],56%
same,"inhibition at 1 h, up to 10 µM",[2],< 30%
same,Activity,MOLM-13 [3],Active
same,Activity,MOLM-13 [4],Active
same,Activity,MV4-11 [5],7.75%
same,Activity,MV4-11 [6],32.33%
same,Activity,MV4-11 [7],14.39%
same,Activity,MV4-11 [8],15.9%
same,Activity,MV4-11 [9],6.36%
same,Activity,MV4-11 [10],inactive
same,viability at 30 µM,MV4-11 [11],57.8%
same,Activity,MOLM-13 [12],7.55%
same,viability at 10 µM,MOLM-13 [13],76.6%
same,"inhibition at 1 h, up to 10 µM",[14],< 30%
same,Activity,MV4-11 [15],Active
same,Activity,[16],> 20%
same,IC50,MOLM-13 [17],83 µM
same,Activity,MV4-11 [18],81%
same,Activity,MV4-11 [19],87%
same,Activity,MV4-11 [20],Active
same,Activity,MOLM-13 [21],~60%
same,Activity,MOLM-13 [22],9.88%
same,Activity,MV4-11 [23],Active
same,Activity,MOLM-13 [24],14.95%
same,Activity,MOLM-13 [25],Active
same,viability at 10 µM,MV4-11 [26],66.2%
same,Activity,[27],Toxic
same,Activity,[28],Non-Toxic
